Measurements: PMC5989765, “The safety, tolerability, and pharmacokinetic profile of GSK2838232, a novel 2nd generation HIV maturation inhibitor, as assessed in healthy subjects” (Pharmacology Research & Perspectives, 2018)
“Also recorded” adds a separate entry of the source. Read-outs that look alike come from different tables or passages of the source.

Test: Study 204953 Part 2: repeat dosing for 11 days with RTV QD or 200 mg BID unboosted
Type: in vivo, human
Conditions: for CL/F / Cmax / AUC / half-life: geometric mean (95% CI); for Cmax / Tmax / AUC / concentration at 24 h / half-life / concentration at 12 h: human, plasma, oral; for AUC: read-out: AUC(0‐τ); for half-life: read-out: t½ (converted); for dose proportionality (C max and AUC): repeat QD dosing 20‐200 mg with RTV for 11 days, PiB or capsules
Description: This study was planned as an extension of the previously conducted single‐ and multiple‐dose escalation studies described above. It was a double‐blind, placebo‐controlled, single and repeat dose escalation study of micronized API GSK2838232 with RTV conducted in three parts (Part 1A, Part 1B, and Part 2).
In Part 2, GSK2838232 was given to separate cohorts as once‐daily 20, 50, 100, and 200 mg doses with RTV for 11 days, with GSK2838232 and RTV dosing starting at the same time (i.e., no RTV predosing). GSK2838232 was administered as PiB for the 20 and 50 mg cohorts and as the capsule formulation for the 100 and 200 mg cohorts. Another separate cohort of subjects received GSK2838232 alone (i.e., unboosted) at a dose of 200 mg twice‐daily (BID; given every 12 hours) for 11 days using the capsule formulation to assess trough concentrations without RTV co‐administration.
Blood samples were taken via an indwelling cannula or by direct venipuncture, collected into a di‐potassium ethylenediaminetetraacetic acid (K2 EDTA) tube, and placed on wet ice. Samples were centrifuged at approximately 1500g for 10 minutes at approximately 4°C. Exactly 500 μL of the resulting plasma was transferred into labeled 1.4 mL Matrix TrakMate Tubes containing exactly 500 μL of 50 mmol/L citrate buffer, pH 4.0, and mixed well. When 500 μL of plasma was not able to be transferred, the ratio of plasma to citrate buffer was kept at 1:1. Buffered plasma samples were kept on ice and frozen at −70°C within 1 hour of collection. Plasma samples were analyzed for GSK2838232 using a validated analytical method based on protein precipitation, followed by high performance liquid chromatography with tandem mass spectrometry (HPLC/MS/MS) analysis.
Extracts were analyzed using HPLC (Shimadzu, Nexera, 30 series) and tandem mass spectrometry detection (HPLC‐MS/MS). The mass spectrometer used was an API‐5500 using IonSpray interface (500 V) in positive mode monitoring. The mass transitions were 809.5 to 255.1 and 816.5 to 262.1 for GSK2838232 and [2H7] GSK2838232 (the isotopically labeled internal standard), respectively. The chromatographic conditions utilized a Waters Acquity UPLC BEH C18 column (50 × 2.1 mm, 1.7 μm) with mobile phases consisting of 1 mmol/L ammonium formate:formic acid (100:0.005) (mobile phase A) and acetonitrile:formic acid (100:0.1) (mobile phase B) at a flow rate of 0.6 mL/min, with pump B at 63% held for 2 minutes. The assay was validated to have precision (%RSD) of 0.7%‐6.5% (within‐run) and 1.0%‐5.9% RSD (between‐run) and with accuracy (%bias) of 0.0%‐1.6%. […] The lower limit of quantification (LLQ) was 0.5 ng/mL, using a 50 μL aliquot of K2EDTA acidified plasma. The higher limit of quantification (HLQ) was 500 ng/mL.
The PK parameters were calculated by standard noncompartmental analysis based on actual sampling times using WinNonlin Version 6.3 or higher. Estimation of AUC used the linear up/log down trapezoidal rule.

[1] = Study Day 11, 20 mg QD + RTV (PiB), Study 204953
[2] = Study Day 11, 50 mg QD + RTV (PiB), Study 204953
[3] = Study Day 11, 100 mg QD + RTV (capsules), Study 204953
[4] = Study Day 11, 200 mg QD + RTV (capsules), Study 204953
[5] = 200 mg, Study Day 11, 200 mg bid without RTV (capsules), Study 204953
[6] = relative to first dose following predosing ritonavir to steady‐state

## CC(C)C1=C2[C@H]3CC[C@@H]4[C@@]5(C)CC[C@H](OC(=O)CC(C)(C)C(=O)O)C(C)(C)[C@@H]5CC[C@@]4(C)[C@]3(C)CC[C@@]2([C@@H](O)CN(CCN(C)C)Cc2ccc(Cl)cc2)CC1=O [GSK2838232]
200 mg BID unboosted, PA‐IC90 5 ng/mL
  steady‐state C24 as multiple of PA‐IC90: ~ 8 fold
Study 204953
  steady‐state C24 of 200 mg BID without RTV compared with 50 mg QD with RTV: similar
[1]
  CL/F: 44.5 (29.5, 67.3) L/h
  Cmax: 25.3 ng/mL
  half-life: 19.8 h
[2]
  CL/F: 46.0 (35.7, 59.2) L/h
  Cmax: 56.6 ng/mL
  half-life: 20.5 h
[3]
  CL/F: 41.5 (30.7, 56.1) L/h
  Cmax: 130 ng/mL
  half-life: 17.7 h
[4]
  CL/F: 49.8 (30.3, 81.9) L/h
  Cmax: 225 ng/mL
  half-life: 18 h
Study Day 11, 200 mg bid without RTV (capsules), Study 204953
  CL/F: 269 (182, 399) L/h
20 mg, Study day 1, 20 mg QD + RTV (PiB), Study 204953
  Cmax: 11.1 ng/mL
20 mg, Study day 1, 20 mg QD + RTV (PiB), Study 204953, median (range)
  Tmax: 3.74 h
20 mg, Study day 1, 20 mg QD + RTV (PiB), τ = 24 hours, Study 204953
  AUC: 175 ng·h/mL
20 mg, Study day 1, 20 mg QD + RTV (PiB), τ = 24 hours, Study 204953, median (range), read-out: Cτ
  concentration at 24 h: 6.09 ng/mL
50 mg, Study day 1, 50 mg QD + RTV (PiB), Study 204953
  Cmax: 17.1 ng/mL
50 mg, Study day 1, 50 mg QD + RTV (PiB), Study 204953, median (range)
  Tmax: 2.5 h
50 mg, Study day 1, 50 mg QD + RTV (PiB), τ = 24 hours, Study 204953
  AUC: 265 ng·h/mL
50 mg, Study day 1, 50 mg QD + RTV (PiB), τ = 24 hours, Study 204953, median (range), read-out: Cτ
  concentration at 24 h: 11.1 ng/mL
100 mg, Study day 1, 100 mg QD + RTV (capsules), Study 204953
  Cmax: 46.2 ng/mL
100 mg, Study day 1, 100 mg QD + RTV (capsules), Study 204953, median (range)
  Tmax: 2.25 h
100 mg, Study day 1, 100 mg QD + RTV (capsules), τ = 24 hours, Study 204953
  AUC: 635 ng·h/mL
100 mg, Study day 1, 100 mg QD + RTV (capsules), τ = 24 hours, Study 204953, median (range), read-out: Cτ
  concentration at 24 h: 22.7 ng/mL
200 mg, 200 mg BID unboosted, read-out: steady‐state C24 mean concentration
  concentration at 24 h: 39 ng/mL
[5]
  Cmax: 96.1 ng/mL
  half-life: 19.4 h
200 mg, Study Day 11, 200 mg bid without RTV (capsules), Study 204953, median (range)
  Tmax: 3.76 h
200 mg, Study Day 11, 200 mg bid without RTV (capsules), τ = 12 hours, Study 204953
  AUC: 742 ng·h/mL
200 mg, Study Day 11, 200 mg bid without RTV (capsules), τ = 12 hours, Study 204953, median (range), read-out: Cτ
  concentration at 12 h: 38.4 ng/mL
200 mg, Study day 1, 200 mg QD + RTV (capsules), Study 204953
  Cmax: 75 ng/mL
200 mg, Study day 1, 200 mg QD + RTV (capsules), Study 204953, median (range)
  Tmax: 2.25 h
200 mg, Study day 1, 200 mg QD + RTV (capsules), τ = 24 hours, Study 204953
  AUC: 1060 ng·h/mL
200 mg, Study day 1, 200 mg QD + RTV (capsules), τ = 24 hours, Study 204953, median (range), read-out: Cτ
  concentration at 24 h: 40.1 ng/mL
200 mg, Study day 1, 200 mg bid without RTV (capsules), Study 204953
  Cmax: 48.5 ng/mL
200 mg, Study day 1, 200 mg bid without RTV (capsules), Study 204953, median (range)
  Tmax: 3.74 h
200 mg, Study day 1, 200 mg bid without RTV (capsules), τ = 12 hours, Study 204953
  AUC: 267 ng·h/mL
200 mg, Study day 1, 200 mg bid without RTV (capsules), τ = 12 hours, Study 204953, median (range), read-out: Cτ
  concentration at 12 h: 20 ng/mL
Study Day 11, 20 mg QD + RTV (PiB), Study 204953, median (range)
  Tmax: 5.98 h
Study Day 11, 20 mg QD + RTV (PiB), τ = 24 hours, Study 204953
  AUC: 449 ng·h/mL
Study Day 11, 20 mg QD + RTV (PiB), τ = 24 hours, Study 204953, median (range), read-out: Cτ
  concentration at 24 h: 17 ng/mL
Study Day 11, 50 mg QD + RTV (PiB), Study 204953, median (range)
  Tmax: 3.75 h
Study Day 11, 50 mg QD + RTV (PiB), τ = 24 hours, Study 204953
  AUC: 1090 ng·h/mL
Study Day 11, 50 mg QD + RTV (PiB), τ = 24 hours, Study 204953, median (range), read-out: Cτ
  concentration at 24 h: 40.8 ng/mL
Study Day 11, 100 mg QD + RTV (capsules), Study 204953, median (range)
  Tmax: 3.25 h
Study Day 11, 100 mg QD + RTV (capsules), τ = 24 hours, Study 204953
  AUC: 2410 ng·h/mL
Study Day 11, 100 mg QD + RTV (capsules), τ = 24 hours, Study 204953, median (range), read-out: Cτ
  concentration at 24 h: 89.3 ng/mL
Study Day 11, 200 mg QD + RTV (capsules), Study 204953, median (range)
  Tmax: 3.25 h
Study Day 11, 200 mg QD + RTV (capsules), τ = 24 hours, Study 204953
  AUC: 4010 ng·h/mL
Study Day 11, 200 mg QD + RTV (capsules), τ = 24 hours, Study 204953, median (range), read-out: Cτ
  concentration at 24 h: 142 ng/mL
[6]
  reduction of Day 1 AUC without ritonavir predosing: ~25%
  reduction of Day 1 C max without ritonavir predosing: ~25%
  dose proportionality (C max and AUC): proportional PK; also recorded: dose proportional
Listed as GSK2383232
  dose proportionality (C max and AUC): proportional pharmacokinetics
